This is an account of results in patent publication US20240174690A1, “ANNULATED 2-AMINO-3-CYANO THIOPHENES AND DERIVATIVES FOR THE TREATMENT OF CANCER” (BOEHRINGER INGELHEIM INTERNATIONAL GMBH, priority 2021, published 2024).

Test [1] concerns NCI-H2122 cells. In words: NCI-H2122 CTG proliferation assay (120 h) (NSCLC, G12C). The note with it: Homo sapiens. The class given is cell-based. The method, boiled down:
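NCI-H2122 cells (KRAS G12C NSCLC), 200 per well in RPMI with 10% FCS, were dosed with compound on day 1 and incubated 120 h at 37 °C. Viability was read by CellTiter-Glo luminescence as percent of DMSO control, and IC50 was fitted with a four-parameter model.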

The test system of test [2] is MKN1 cells. As to the kind of experiment: MKN1 CTG proliferation assay (120 h) (gastric cancer, wt amplified). The class given is cell-based. The gist of the method:
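MKN1 gastric cancer cells (200–500 per well, RPMI + 10% FCS) given a logarithmic compound dose series and incubated 120 h. Viability by CellTiter-Glo luminescence as percent of DMSO controls. IC50 by four-parameter non-linear regression.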

The mark [3] stands for this setting: Homo sapiens, MKN-1, assay 3, CTG 120 h, read-out: MKN1 (assay 3) IC50.
The mark [4] stands for this setting: Homo sapiens, MKN-1, assay 1, CTG 120 h, read-out: MKN1 (assay 1) IC50.
[5] abbreviates: Homo sapiens, MKN-1, assay 2, CTG 120 h, read-out: MKN1 (assay 2) IC50.

Where two headings read alike, the source gives them in different places.

As a reminder, the IC50 is the concentration that gives 50% inhibition.

For the compound `C[C@H](Oc1cc(N2CCNC[C@@]23CCOC3)nc(-c2onc3c2CCC[C@@]32CCCc3sc(N)c(C#N)c32)n1)[C@@H]1CCCN1C` [I-13], the concentration for half-maximal inhibition (IC50) in test [1] was determined as 6470 nM; in test [2] (setting [3]), 679 nM.

With `C[C@H](Oc1cc(-n2ccc(-c3cnccn3)n2)nc(-c2noc3c2CCC[C@@]32CCCc3sc(N)c(C#N)c32)n1)[C@@H]1CCCN1C` [II-130], the values for the 50% inhibitory concentration (IC50) in test [1], in test [2] (setting [4]) and in test [2] (setting [3]) were 221 nM, 216 nM and 297 nM, respectively.

For `C[C@H](Oc1cc(-c2cccc(C(N)=O)c2)nc(-c2noc3c2CCC[C@@]32CCCc3sc(N)c(C#N)c32)n1)[C@@H]1CCCN1C` [II-133], the IC50 in test [1] worked out at 180 nM; in test [2] (setting [3]), 391 nM.

Regarding `C[C@H](Oc1cc(N2CCN(C)C3(CC3)C2)nc(-c2noc3c2CCC[C@@]32CCCc3sc(N)c(C#N)c32)n1)[C@@H]1C[C@@H](F)CN1C` [II-149], the IC50 stood at 2550 nM in test [1] and 467 nM in test [2] (setting [5]).

Consider `C[C@H](Oc1cc(N2CCNC3(COC3)C2)nc(-c2noc3c2CCC[C@@]32CCCc3sc(N)c(C#N)c32)n1)[C@@H]1C[C@@H](F)CN1C` [II-150], for which the half-inhibitory concentration (IC50) in test [1] was found to be 2510 nM; in test [2] (setting [5]), 32 nM.

Take `C[C@H](Oc1nc(-c2noc3c2CCC[C@@]32CCCc3sc(N)c(C#N)c32)nc(N2CCNC3(CC3)C2)c1F)[C@@H]1C[C@@H](F)CN1C` [II-155]: the half-inhibitory concentration (IC50) in test [1] was determined as 929 nM; in test [2] (setting [5]), 284 nM; in test [2] (setting [3]), 633 nM.

Consider `C[C@H](Oc1cc(N2CCN[C@@H](C)C2)nc(-c2noc3c2CCC[C@@]32CCCc3sc(N)c(C#N)c32)n1)[C@@H]1CCCN1C` [II-162], for which the values for the 50% inhibitory concentration (IC50) in test [1] and in test [2] (setting [3]) were 3320 nM and 411 nM, respectively.

Consider `C[C@H](Oc1cc(C2=CCNCC2)nc(-c2noc3c2CCC[C@@]32CCCc3sc(N)c(C#N)c32)n1)[C@@H]1CCCN1C` [II-164], for which the IC50 stood at 4580 nM in test [1] and 1070 nM in test [2] (setting [3]).

In the case of `C[C@H](Oc1cc(N2CCNC3(CC3)C2)nc(-c2noc3c2CCC[C@@]32CCCc3sc(N)c(C#N)c32)n1)[C@@H]1C[C@@H](F)CN1C` [II-165], the IC50 in test [1] came to 1790 nM; in test [2] (setting [5]) it was 427 nM.

On to `C[C@H](Oc1cc(-n2cc3c(n2)CNC3)nc(-c2noc3c2CCC[C@@]32CCCc3sc(N)c(C#N)c32)n1)[C@@H]1CCCN1C` [II-168], for which the results for the IC50 in test [1] and in test [2] (setting [3]) were 1770 nM and 176 nM, respectively.

With `C[C@H](Oc1cc(-n2ccc(C(=O)N[C@@H]3CCOC3)n2)nc(-c2noc3c2CCC[C@@]32CCCc3sc(N)c(C#N)c32)n1)[C@@H]1CCCN1C` [II-192], the results for the concentration for half-maximal inhibition (IC50) in test [2] (setting [4]), in test [2] (setting [5]) and in test [2] (setting [3]) were 25 nM, 26 nM and 9 nM, respectively.

`C[C@H](Oc1cc(-n2ccc(C(=O)N[C@H]3CCOC3)n2)nc(-c2noc3c2CCC[C@@]32CCCc3sc(N)c(C#N)c32)n1)[C@@H]1CCCN1C` [II-193]: the IC50 in test [2] (assay 3, CTG 120 h, read-out: MKN1 (assay 3) IC50) was determined as 17 nM.

With `C[C@H](Oc1cc(-n2ccc(C(=O)N(C)C3COC3)n2)nc(-c2noc3c2CCC[C@@]32CCCc3sc(N)c(C#N)c32)n1)[C@@H]1CCCN1C` [II-194], the IC50 worked out at 20 nM in test [2] (setting [4]) and 25 nM in test [2] (setting [3]).

With `COCCNC(=O)c1ccn(-c2cc(O[C@@H](C)[C@@H]3CCCN3C)nc(-c3noc4c3CCC[C@@]43CCCc4sc(N)c(C#N)c43)n2)n1` [II-195], the IC50 in test [2] (setting [3]) was 22 nM.

With `CO[C@H]1CCN(C)[C@@H]1[C@H](C)Oc1cc(-n2ccc(C(=O)N[C@@H](C)c3ccccn3)n2)nc(-c2noc3c2CCC[C@@]32CCCc3sc(N)c(C#N)c32)n1` [II-196], in test [2] (setting [3]), the IC50 was 17 nM.

For `CO[C@H]1CCN(C)[C@@H]1[C@H](C)Oc1cc(-n2ccc(C(=O)N[C@@H]3CCOC3)n2)nc(-c2noc3c2CCC[C@@]32CCCc3sc(N)c(C#N)c32)n1` [II-197], in test [2] (setting [3]), the IC50 came out at 16 nM.

With `CO[C@H]1CCN(C)[C@@H]1[C@H](C)Oc1cc(-n2ccc(C(=O)N[C@H]3CCOC3)n2)nc(-c2noc3c2CCC[C@@]32CCCc3sc(N)c(C#N)c32)n1` [II-198], the IC50 in test [2] (setting [3]) was 15 nM.

Consider `CO[C@H]1CCN(C)[C@@H]1[C@H](C)Oc1cc(-n2ccc(C(=O)N(C)C3COC3)n2)nc(-c2noc3c2CCC[C@@]32CCCc3sc(N)c(C#N)c32)n1` [II-199], for which the 50% inhibitory concentration (IC50) in test [2] (setting [3]) came to 51 nM.

For `COCCNC(=O)c1ccn(-c2cc(O[C@@H](C)[C@@H]3[C@@H](OC)CCN3C)nc(-c3noc4c3CCC[C@@]43CCCc4sc(N)c(C#N)c43)n2)n1` [II-200], in test [2] (setting [3]), the half-maximal inhibitory concentration (IC50) turned out to be 11 nM.

`CO[C@H]1CCN(C)[C@@H]1[C@H](C)Oc1cc(-n2ccc(C(N)=O)n2)nc(-c2noc3c2CCC[C@@]32CCCc3sc(N)c(C#N)c32)n1` [II-201]: the IC50 stood at 20 nM in test [2] (setting [4]) and 14 nM in test [2] (setting [3]).

With `C[C@H](Oc1cc(-n2cc3ccn([C@H]4CCOC4)c(=O)c3n2)nc(-c2noc3c2CCC[C@@]32CCCc3sc(N)c(C#N)c32)n1)[C@@H]1CCCN1C` [II-202], in test [2] (setting [3]), the concentration for half-maximal inhibition (IC50) was found to be 27 nM.

On to `C[C@H](Oc1cc(-n2cc3ccn([C@@H]4CCOC4)c(=O)c3n2)nc(-c2noc3c2CCC[C@@]32CCCc3sc(N)c(C#N)c32)n1)[C@@H]1CCCN1C` [II-203], for which the figures for the 50% inhibitory concentration (IC50) in test [2] (setting [5]) and in test [2] (setting [3]) were 41 nM and 63 nM, respectively.

For `C[C@H](Oc1cc(-n2cc3ccn(C[C@H]4CCOC4)c(=O)c3n2)nc(-c2noc3c2CCC[C@@]32CCCc3sc(N)c(C#N)c32)n1)[C@@H]1CCCN1C` [II-204], the IC50 was found to be 33 nM in test [2] (setting [5]) and 48 nM in test [2] (setting [3]).

Consider `C[C@H](Oc1cc(-n2cc3ccn([C@@H](C)c4ccccn4)c(=O)c3n2)nc(-c2noc3c2CCC[C@@]32CCCc3sc(N)c(C#N)c32)n1)[C@@H]1CCCN1C` [II-205], for which, in test [2] (setting [3]), the 50% inhibitory concentration (IC50) is 33 nM.

In the case of `C[C@H](Oc1cc(-n2cc3ccn(C4CCOCC4)c(=O)c3n2)nc(-c2noc3c2CCC[C@@]32CCCc3sc(N)c(C#N)c32)n1)[C@@H]1CCCN1C` [II-206], in test [2] (setting [3]), the concentration for half-maximal inhibition (IC50) turned out to be 34 nM.

For the compound `[2H]C([2H])([2H])N1C[C@H](F)C[C@H]1[C@H](C)Oc1cc(N2CCN(C([2H])([2H])[2H])C3(CC3)C2)nc(-c2noc3c2CCC[C@@]32CCCc3sc(N)c(C#N)c32)n1` [II-207], in test [2] (setting [3]), the IC50 was determined as 785 nM.

Turning to `C[C@H](Oc1cc(-n2ccc(-c3cn(C4CCOCC4)nn3)n2)nc(-c2noc3c2CCC[C@@]32CCCc3sc(N)c(C#N)c32)n1)[C@@H]1CCCN1C` [II-210], the IC50 in test [2] (setting [3]) worked out at 37 nM.

For `C[C@H](Oc1cc(-n2ccc(-c3cn([C@@H]4CCOC4)nn3)n2)nc(-c2noc3c2CCC[C@@]32CCCc3sc(N)c(C#N)c32)n1)[C@@H]1CCCN1C` [II-211], the IC50 in test [2] (setting [3]) is 22 nM.

As for `C[C@H](Oc1cc(-n2ccc(-c3cn([C@H]4CCOC4)nn3)n2)nc(-c2noc3c2CCC[C@@]32CCCc3sc(N)c(C#N)c32)n1)[C@@H]1CCCN1C` [II-212], the half-inhibitory concentration (IC50) in test [2] (setting [3]) was found to be 17 nM.

Regarding `C[C@H](Oc1cc(-n2ccc(-c3cn(CC4(C)COC4)nn3)n2)nc(-c2noc3c2CCC[C@@]32CCCc3sc(N)c(C#N)c32)n1)[C@@H]1CCCN1C` [II-213], the half-inhibitory concentration (IC50) in test [2] (setting [3]) amounted to 12 nM.
